From patent publication US20070010532A1, “3-Pyridylcarboxamide derivatives as pesticidal agents” (BAYER CROPSCIENCE GMBH, priority 2003, published 2007) come the findings set out here.

The subject of test [1] is black bean aphids (Aphis fabae). The test can be described thus: Method A: field bean plants (Vicia faba) and aphids dipped into aqueous solution of the formulated preparation. Type of test: in vivo. Conditions: read-out: mortality among the aphids. As to the method:
Germinated field bean seeds (Vicia faba) with seed roots were transferred into brown glass bottles filled with tap water and then populated with about 100 black bean aphids (Aphis fabae). Plants and aphids were then dipped into an aqueous solution of the formulated preparation to be examined for 5 seconds. After they had drained, plants and animals were stored in a climatized chamber (16 hours of light/day, 25° C., 40-60% relative atmospheric humidity). After 3 and 6 days of storage, the effect of the preparation on the aphids was determined. […]

Test [2] has the same test system. The test can be described thus: Method B: root-systemic action, preparation pipetted into the bottle of field bean (Vicia faba) populated with aphids. The format is in vivo. The following applies: read-out: mortality among the aphids, by root-systemic action. As to the method: Germinated field bean seeds (Vicia faba) with seed roots were transferred into brown glass bottles filled with tap water and then populated with about 100 black bean aphids (Aphis fabae). Plants and aphids were then dipped into an aqueous solution of the formulated preparation to be examined for 5 seconds. After they had drained, plants and animals were stored in a climatized chamber (16 hours of light/day, 25° C., 40-60% relative atmospheric humidity). After 3 and 6 days of storage, the effect of the preparation on the aphids was determined. […] Method B:
Germinated field bean seeds (Vicia faba) with seed roots were transferred into brown glass bottles filled with tap water. Four milliliters of an aqueous solution of the formulated preparation to be examined were pipetted into the brown glass bottle. The field bean was then heavily populated with about 100 black bean aphids (Aphis fabae). Plants and aphids were then stored in a climatized chamber (16 hours of light/day, 25° C., 40-60% relative atmospheric humidity). After 3 and 6 days of storage, the root-systemic effect of the preparation on the aphids was determined.

Turning to `CCC1(C)N/C(=N/C(=O)c2cnccc2C(F)(F)F)NC1=O` (stereo not drawn) [Compound B-91, N-[(2Z)-4-ethyl-4-methyl-5-oxo-2-imidazolidinylidene]-4-(trifluoromethyl)nicotinamide], the mortality (usually the percentage killed) at 300 ppm in test [1] was 90 to 100%. Further, the mortality at 30 ppm in test [2] lay within 90 to 100%.
On to `CC1(C)N/C(=N/C(=O)c2cnccc2C(F)(F)F)N(Cc2ccc(Cl)cc2)C1=O` [Compound B-529, N-[(2Z)-1-(4-chlorobenzyl)-4,4-dimethyl-5-oxo-2-imidazolidinylidene]-4-(trifluoromethyl)nicotinamide], for which the mortality at 300 ppm in test [1] lay within 90 to 100%. Also, the mortality at 30 ppm in test [2] lay in the range of 90 to 100%.
Take `CSC1=N/C(=N\C(=O)c2cnccc2C(F)(F)F)N(C(C)=O)C1(C)C` [Compound E-135, N-[(2Z)-1-acetyl-5,5-dimethyl-4-methylthio-1,5-dihydro-2H-imidazol-2-ylidene]-4-(trifluoromethyl)nicotinamide]: the mortality at 300 ppm in test [1] was in the range of 90 to 100%. In addition, the mortality at 30 ppm in test [2] lay within 90 to 100%.
